Molecular target: T1, Signal peptide peptidase-like 2A (Homo sapiens, UniProt Q8TCT8)
T1 sequence (Q8TCT8 whole entry): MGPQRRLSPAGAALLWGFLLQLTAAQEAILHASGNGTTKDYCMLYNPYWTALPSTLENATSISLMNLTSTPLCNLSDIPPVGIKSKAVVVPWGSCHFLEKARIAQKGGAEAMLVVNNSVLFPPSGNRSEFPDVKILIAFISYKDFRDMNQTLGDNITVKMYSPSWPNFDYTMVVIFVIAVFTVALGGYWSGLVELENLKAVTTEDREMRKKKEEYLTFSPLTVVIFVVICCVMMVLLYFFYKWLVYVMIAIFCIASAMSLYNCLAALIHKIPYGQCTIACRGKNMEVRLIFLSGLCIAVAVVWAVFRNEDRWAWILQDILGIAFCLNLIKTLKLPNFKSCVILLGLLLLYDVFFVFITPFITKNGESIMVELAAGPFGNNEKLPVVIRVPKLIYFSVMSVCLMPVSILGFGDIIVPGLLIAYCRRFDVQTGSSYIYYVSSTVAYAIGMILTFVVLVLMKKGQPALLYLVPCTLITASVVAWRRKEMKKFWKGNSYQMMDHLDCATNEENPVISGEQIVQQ
Experiment: Inhibition of human SPPL2A expressed in human U2OS cells assessed as nuclear mask transferring to EGFP channel using EGFP-labeled TNFalpha (aa1-76) NTF as substrate and measured after 24 hrs by Hoechst staining based translocation assay
Assay type: cell-based

- IC50: 1 nM
Structure (SMILES): CC(C)C(=O)Nc1nc(Cl)c(NC(=O)C[C@@H](C)C(=O)N[C@@H]2C(=O)N3CCCN3Cc3ccccc32)s1

Reference: ChEMBL document CHEMBL5131552, “Diazepinone Compounds as Sppl2a Inhibitors for Treating Autoimmune Diseases and Lymphomas” (ACS Med Chem Lett, 2022)
